US20090104119A1, “Dendrimer Based Compositions And Methods Of Using The Same” (priority 2004, published 2009)

What was measured:
[1] = system: KB cells which express a high cell surface FA receptor (FAR); assay: Cellular uptake/binding of dendrimers in high-FAR KB cells, flow cytometry; format: cell-based, human
Method: (§1) Cell culture and treatment.
(§2) Flow Cytometry and Confocal Microscopy. The standard fluorescence of the dendrimer solutions was quantified using a Beckman spectrofluorimeter. For flow cytometric analysis of the uptake of the targeted polymer, cells were trypsinized and suspended in PBS containing 0.1% bovine serum albumin (PBSB) and analyzed using a Becton Dickinson FACScan analyzer. The FL1-fluorescence of 10,000 cells was measured and the mean fluorescence of gated viable cells was quantified. Confocal microscopic analysis was performed in cells plated on a glass cover-slip, using a Carl Ziess confocal microscope. Fluorescence and differential interference contrast (DIC) images were collected simultaneously using an argon laser, using the appropriate filters for FITC.
The cellular uptake of the dendrimers was measured in KB cells which express a high cell surface FA receptor (FAR). The FA-conjugated dendrimers bound to the cells in a dose-dependent fashion, with 50% binding at 10-15 nM for both the G5-FITC-FA and G5-FITC-FA-MTX, while the control dendrimer G5-FITC was not detected in the KB cells (See, e.g., FIG. 18A). Identical binding curves were obtained for the G5-FITC-FA and G5-FITC-FA-MTX when the fluorescence obtained was normalized for the quenching observed in the standard solutions of the dendrimers (See e.g., FIG. 18B).
(§3) The effect of free FA on the uptake of the dendrimers was tested in KB cells that express both high and low FAR. The binding of the conjugates to the low FAR-expressing KB cells was 30% of that of the high FAR-expressing cells for both the G5-FITC-FA and G5-FITC-FA-MTX (See, for e.g., FIG. 19, left panel). […] The binding and internalization of the dendrimers to KB cells was assessed by confocal microscopy. KB cells were incubated with 250 nM of the indicated dendrimers for 24 hours and confocal images were taken. Conjugates containing the targeting molecule FA internalized into KB cells within 24 h (See, e.g., FIG. 20).

[2] = system: KB cells; assay: Inhibition of cell growth by XTT assay; format: cell-based, human; details: for inhibition of cell growth, XTT: 1, 2 or 3 days
Method: as §1
Evaluation of dendrimer cytotoxicity.
Because the binding of the conjugate to KB cells reaches maximal uptake within 1 h (Quintana et al, 2002. Pharmaceutical Research 19: 1310-1316.), the effect of the G5-FI-FA-MTX on cell growth was initially tested by pre-incubation of cells with the conjugate for 1 h, followed by incubation in a drug-free medium for 5 d. […] When the cells were pre-incubated with dendrimers for 4 h, there was a modest decrease of about 10% in cell growth as determined by XTT assay. The cytotoxicity measurements were therefore done by incubation with the dendrimer for a minimum of 24 h, a pre-incubation time period shown to induce significant cytotoxicity.
The inhibition of cell growth induced by the conjugates was also tested by XTT assay which is based on the conversion of XTT to formazan by the active mitochondria of live cells (See, e.g., Roehm et al, J Immunol Methods 142, 257 (1991)).
As free FA blocks the uptake of the dendrimers as well as rescues cells from MTX-induced cytotoxicity, the effect of pre-incubation of cells with excess FA on the anti-proliferative effect of G5-FITC-FA-MTX was tested. KB cells were exposed to different concentrations of the conjugate or free MTX for 24 h in the absence or presence of 50 μM FA. The incubation medium was removed, the cells were rinsed and incubated with fresh medium for 5 additional days in the absence of the drugs, and the XTT assay was performed (See, e.g., FIG. 24, □, ▪, represents cells treated with MTX; Δ, ▴, represents cells treated with G5-FITC-FA-MTX).
The anti-proliferative effect of the MTX-conjugates was compared to conjugates that lacked either the FA or the FITC molecule. KB cells were incubated with 30 nM of the conjugates (=150 nM effective MTX concentration) for 24 h and the incubation medium was removed. The cells were rinsed and incubated for an additional 5 d in fresh medium in the absence of the drugs, and the XTT assay was performed.

[3] = system: KB cells; assay: Inhibition of cell growth by total cell protein; details: 150 nM FA with 150 nM MTX, 24 h, then 6 d fresh medium; total cell protein
Method: Cell culture and treatment. KB cells were maintained in folate-free medium containing 10% serum (See, e.g., Quintana et al, Pharm. Res. 19, 1310 (2002)) to provide extracellular FA similar to that found in human serum. Cells were plated in 12-well plates for uptake studies, in 24-well plates for cell growth analysis, and in 96-well plates for XTT assay. Cells were rinsed with FA-free medium containing dialyzed serum and incubated at 37° C. with dendrimer-drug conjugates for the indicated time periods and concentrations. KB cells were also maintained in RPMI medium containing 2 μM FA to obtain cells which express low FAR.
Evaluation of dendrimer cytotoxicity. Cell growth was determined by assay of the total protein in lysates of treated cells using a bicinchoninic acid reagent (PIERCE, and by XTT assay, using a kit from Roche.
Time course and dose dependent inhibition of cell growth. Previous studies have shown that MTX-induced cytotoxicity is detectable in vitro only if the medium is completely deprived of FA (See, e.g., Sobrero & Bertino, Int. J. Cell Cloning 4, 51 (1986)). The effect of the trifunctional dendrimers on cell growth was tested in cells incubated in a FA-deficient medium. Cells were treated with 300 nM conjugates (equivalent of 1500 nM MTX) or 1500 nM free MTX for 1-4 days, and cell proliferation was determined by estimation of cellular protein content. Cells were treated for 2 days with different concentrations of the conjugates or free MTX (the conjugate concentration is given as MTX equivalents, with 5 MTX per dendrimer molecule). KB cells which express high and low FAR were incubated with 30 nM of the dendrimers for 1 hr at 37° C., rinsed, and the fluorescence of cells was determined by flow cytometric analysis (See. e.g., FIG. 21, left panel).
KB cells were treated with 150 or 500 nM MTX in the presence or absence of equimolar concentrations of free FA for 24 h. […] The cells were rinsed to remove the drugs and incubated with fresh medium for an additional 6 d, and total cell protein was determined.

[4] = mouse, in vivo
Excerpt: Recipient animal and tumor model. Immunodeficient, 6- to 8-weekold athymic nude female mice [Sim:(NCr) nu/nu fisol] were purchased from Simonsen Laboratories, Inc. (Gilroy, Calif.). Five- to 6-week-old Fox Chase severe combined immunodeficient (SCID; CB-17/lcrCrl-scidBR) female mice were purchased from the Charles River Laboratories (Wilmington, Mass.) and housed in a specific pathogen-free animal facility at the University of Michigan Medical Center in accordance with the regulations of the University's Committee on the Use and Care of Animals as well as with federal guidelines, including the Principles of Laboratory Animal Care. Animals were fed ad libitum with Laboratory Autoclavable Rodent Diet 5010 (PMI Nutrition International, St. Louis, Mo.). Three weeks before tumor cell injection, the food was changed to a folate-deficient diet (TestDiet, Richmond, Ind.). For urine and feces collection, animals were housed in metabolic rodent cages (Nalgene, Rochester, N.Y.).
Tumor cell line. The KB human cell line, which overexpresses the folate receptor (See, e.g., Turek et al, J Cell Sci 106, 423 (1993)), was purchased from the American Type Tissue Collection (Manassas, Va.) and maintained in vitro at 37° C., 5% CO2 in folate-deficient RPMI 1640 supplemented with penicillin (100 units/mL), streptomycin (100 μg/mL), and 10% heat-inactivated fetal bovine serum. Before injection in the mice, the cells were harvested with trypsin-EDTA solution, washed, and resuspended in PBS. The cell suspension (5×10^6 cells in 0.2 mL) was injected s.c. into one flank of each mouse using a 30-gauge needle. In the biodistribution studies, the tumors were allowed to grow for 2 weeks until reaching ˜0.9 cm^3 in volume. The formula chosen to compute tumor volume was for a standard volume of an ellipsoid, where V= 4/3π (½ length×½ width×½ depth). With an assumption that width equals depth and […], the formula used was V=½×length×width^2. Targeted drug delivery using conjugate injections was started on the fourth day after implantation of the KB cells.
Biodistribution and excretion of tritiated dendrimer. […] Both tritiumlabeled conjugates were delivered at equimolar concentrations of the modified dendrimer. At 5 minutes, 2 hours, 1 day, 4 days, and 7 days postinjection, the animals were euthanized and samples of tumor, heart, lung, liver, spleen, pancreas, kidney, and brain were taken. […] The mice were euthanized at 5 minutes, 1 day, and 4 days following injection, and tissues were harvested as above. Blood was collected at each time point via cardiac puncture. Each group included three to five mice. Urine and feces samples were collected at 2, 4, 8 and 12 hours and 1, 2, 3, and 4 days.
Radioactive tissue samples were prepared as described in Nigavekar et al, Pharm Res 21, 476 (2004). The tritium content was measured in a liquid scintillation counter (LS 6500, Beckman Coulter, Fullerton, Calif.). The values of measured radioactivity were adjusted for the counting efficiency of the instrument and used to derive radioactivity (1 μCi=2.22×10^6 dpm) per sample. These values were then normalized by tissue weight and the specific radioactivity of the conjugates was reported as a percentage of the injected dosage (% ID/g). The excreted radioactivity (dendrimer) via urine and feces was reported as a percentage of the injected dosage (% ID).
Biodistribution of tritiated dendrimers. […] The mice were maintained on a folate-deficient diet for the duration of the experiment to minimize the circulating levels of folic acid (See, e.g., Mathias et al., J Nucl Med 29, 1579 (1998)). […] Mice were evaluated at various time points (5 minutes to 7 days) following i.v. administration of the conjugates.

[5] = system: s.c. human KB xenografts; assay: Targeted drug delivery, tumor growth and survival in SCID mice with KB xenografts; format: in vivo, SCID CB-17 mice; details: first trial, up to 15 injections; cumulative 5.0 mg/kg methotrexate equivalents or equimolar dendrimer
Method: Recipient animal and tumor model.
Delivery of targeted nanoparticle therapeutic. Twice weekly, SCID mice with s.c. KB xenografts, starting on day 4 after tumor implantation, received via the tail vein an injection of either targeted or nontargeted conjugate containing methotrexate, a conjugate without methotrexate, free methotrexate, or saline as a control. The compounds were delivered in a 0.2 mL volume of saline per 20 g of mouse. The single dose of methotrexate delivered each time equaled 0.33 mg/kg. The higher doses of 1.67 and 3.33 mg/kg free methotrexate were also tested. The conjugates were delivered at equimolar concentration of methotrexate calculated based on the number of methotrexate molecules present in a nanoparticle. The conjugate without methotrexate was delivered at equimolar concentration of dendrimer. In the initial trial, six groups of mice with five mice in each group received up to 15 injections. In the follow-up trial, mice received up to 28 injections dependent on their survival. The body weights of the mice were monitored throughout the experiment as an indication of adverse effects of the drug. Histopathology of multiple organs was done at the termination of each trial and each time mouse had to be euthanized due to toxic effects or tumor burden. Tissues from lung, heart, liver, pancreas, spleen, kidney, and tumor were analyzed. Additionally, cells were isolated from tumors, stained with targeted fluorescein-labeled conjugate, and tested for the presence of folic acid receptors using flow cytometer.
Targeted drug delivery to tumor cells through the folate receptor. The efficacy of different doses of conjugates was tested on SCID CB-17 mice bearing s.c. human KB xenografts and was compared with equivalent and higher doses of free methotrexate. Mice were maintained on the folic acid-deficient diet for 3 weeks before injection of the KB tumor cells to achieve circulating levels of folic acid that approach those in human serum and to prevent down-regulation of folate receptors on tumor xenografts (See, Mathias et al., J Nucl Med 29, 1579 (1998)). Six groups of SCID mice with five mice in each group were injected s.c. on one flank with 5×10^6 KB cells in 0.2 mL PBS suspension. The highest total dose of G5-FI-FA-MTX therapeutic used equals 55.0 mg/kg and is equivalent to a 5.0 mg/kg total cumulative dose of free methotrexate (FIG. 29). The therapeutic dose of the conjugate was compared with three cumulative doses of free methotrexate equivalent to 33.3, 21.7, and 5.0 mg/kg accumulated in 10 to 15 injections based on mouse survival. Saline and the conjugate without methotrexate (G5-FI-FA) were used as controls.

[6] = system: low FAR-expressing KB cells; assay: Cellular uptake/binding of dendrimers in low-FAR KB cells, flow cytometry; format: cell-based, human
Method: as §1, §2, §3
Time course and dose dependent inhibition of cell growth.

[7] = 50 μM FA, 24 h, then 5 days drug-free, XTT

| Compound | inhibition of cell growth, XTT [2] | amount in feces [4] | concentration in KB tumor [4] | concentration in liver [4] | time of excretion, primarily through the kidney [4] [h] | also measured |
| --- | --- | --- | --- | --- | --- | --- |
| G5-(Ac)82-(FITC)5 [G5-FITC] | not growth-inhibitory | – | – | – | – | detection of dendrimer in KB cells ([1]; control dendrimer without FA): not detected |
| Nc1nc2ncc(CNc3ccc(C(=O)N[C@@H](CCC(=O)O)C(=O)O)cc3)nc2c(=O)[nH]1 [FA, Folic Acid, reference compound] | – | – | – | – | – | reversal of MTX-induced growth-arrest by FA [3]: almost completely reversed; effect of excess free FA on growth inhibition by conjugate or free MTX [2, 7]: blocked growth inhibition; increase of cell growth above control cells [2, 7]: 20% |
| G5-(Ac)50-(Ac-3H)54-(FA)6 [G5-^3H-FA] | – | very low amounts | increases over the first 4 days | increases over the first 4 days | ≤ 24 | cumulative clearance compared with G5-3H [4]: lower |
| G5-(Ac)82-(FITC)5-(FA)5 [G5-FITC-FA] | not growth-inhibitory | – | – | – | – | effect of free FA on uptake, high-FAR expressing cells ([1]; 50 μM FA, dendrimer 30 nM): completely blocked; effect on tumor growth [5]: no therapeutic effect; binding to low FAR-expressing KB cells relative to high FAR-expressing cells [6]: 30%; effect of free FA on uptake, low-FAR expressing cells ([6]; 50 μM FA, dendrimer 30 nM): completely blocked |
| G5-(Ac)50-(Ac-3H)54 [G5-^3H] | – | very low amounts | decreased rapidly | decreased rapidly | ≤ 24 | – |
